In ChEMBL document CHEMBL5137024, “Discovery of novel coumarin-indole derivatives as tubulin polymerization inhibitors with potent anti-gastric cancer activities” (Eur J Med Chem, 2022):
Calls of active or inactive are those of the source. The rule behind the calls is not given here.

Key:
MGC-803 [1] = assay: Antiproliferative activity against human MGC-803 cells assessed as reduction in cell viability incubated for 48 hrs by MTT assay; format: functional, cell-based
KYSE-450 = assay: Antiproliferative activity against human KYSE-450 cells assessed as reduction in cell viability incubated for 48 hrs by MTT assay; format: functional, cell-based; conditions: KYSE-450, 48 h
EC9706 = assay: Antiproliferative activity against human EC9706 cells assessed as reduction in cell viability incubated for 48 hrs by MTT assay; format: functional, cell-based; conditions: EC9706, 48 h
CWR22R = assay: Antiproliferative activity against human 22Rv1 cells assessed as reduction in cell viability incubated for 48 hrs by MTT assay; format: functional, cell-based; conditions: 22Rv1, 48 h
PC-3 = assay: Antiproliferative activity against human PC-3 cells assessed as reduction in cell viability incubated for 48 hrs by MTT assay; format: functional, cell-based; conditions: PC-3, 48 h
NCI-H520 = assay: Antiproliferative activity against human NCI-H520 cells assessed as reduction in cell viability incubated for 48 hrs by MTT assay; format: functional, cell-based; conditions: NCI-H520, 48 h
MGC-803 [2] = assay: Antiproliferative activity against human MGC-803 cells assessed as reduction in cell viability at 15 to 30 nM by MTT assay; format: functional, cell-based; conditions: dose 15-30 nM, time 12-48 hrs, TDE = time-dependent effect
HGC-27 [3] = assay: Antiproliferative activity against human HGC-27 cells assessed as reduction in cell viability incubated for 12 to 48 hrs by MTT assay; format: functional, cell-based; conditions: dose 15-30 nM, time 12-48 hrs, DDE = dose-dependent effect
MGC-803 [4] = assay: Inhibition of ERK signalling pathway in human MGC-803 cells assessed as downregulation of MEK1/2 phosphorylation at 5 to 15 nM incubated for 48 hrs; format: cell-based; conditions: dose 5-15 nM
HGC-27 [5] = assay: Inhibition of ERK signalling pathway in human HGC-27 cells assessed as downregulation of c-Raf phosphorylation at 10 to 30 nM incubated for 48 hrs; format: cell-based; conditions: dose 10-30 nM
MGC-803 [6] = assay: Inhibition of ERK signalling pathway in human MGC-803 cells assessed as reduction in downstream substrate p90RSK phosphorylation at 5 to 15 nM incubated for 48 hrs; format: cell-based; conditions: dose 5-15 nM
MGC-803 [7] = assay: Inhibition of p38 signalling pathway in human MGC-803 cells assessed as reduction in downstream substrate MAPKAPK2 phosphorylation at 5 to 15 nM incubated for 48 hrs; format: cell-based; conditions: dose 5-15 nM
HGC-27 [8] = assay: Inhibition of p38 signalling pathway in human HGC-27 cells assessed as reduction in downstream substrate MAPKAPK2 phosphorylation at 10 to 30 nM incubated for 48 hrs; format: cell-based; conditions: dose 10-30 nM
[9] = target: c-Jun N-terminal kinase, JNK (Homo sapiens) (UniProt P45983+P53779+P45984); assay: Inhibition of JNK signalling pathway in human HGC-27 cells assessed as reduction in JNK phosphorylation at 10 to 30 nM incubated for 48 hrs; format: cell-based; conditions: dose 10-30 nM
MGC-803 [10] = assay: Downregulation of phosphorylated Elk-1 expression in human MGC-803 cells incubated for 48 hrs; format: functional, cell-based; conditions: dose 5-15 nM, DDE = dose-dependent effect
MGC-803 [11] = assay: Induction of apoptosis in human MGC-803 cells assessed as increase in total apoptotic cells at 15 nM incubated for 48 hrs by annexin V FITC and propidium iodide staining based flow cytometry analysis (reference value: 3.4%); format: functional
[12] = Induction of mitochondria mediated intrinsic apoptosis in human MGC-803 cells assessed as early apoptotic cells at 5 nM measured after 48 hrs by flow cytometry analysis (Rvb= 1.6%); format: functional
[13] = Induction of mitochondria mediated intrinsic apoptosis in human HGC-27 cells assessed as late apoptotic cells at 10 nM measured after 48 hrs by flow cytometry analysis (Rvb= 93.6%); format: functional
HGC-27 [14] = assay: Induction of apoptosis in human HGC-27 cells assessed as nuclear fragmentation at 10 to 30 nM incubated for 48 hrs by DAPI staining based analysis; format: functional, cell-based; conditions: dose 10-30 nM
MGC-803 [15] = assay: Induction of DNA damage in human MGC-803 cells by comet assay; format: functional, cell-based; conditions: dose 5-15 nM, DDE = dose-dependent effect
HGC-27 [16] = assay: Induction of DNA damage in human HGC-27 cells by comet assay; format: functional, cell-based; conditions: dose 10-30 nM, DDE = dose-dependent effect
MGC-803 [17] = assay: Induction of apoptosis in human MGC-803 cells assessed as decrease in Mcl-1 level; format: functional, cell-based; conditions: dose 5-15 nM, DDE = dose-dependent effect
MGC-803 [18] = assay: Induction of apoptosis in human MGC-803 cells assessed as decrease in XIAP level; format: functional, cell-based; conditions: dose 5-15 nM, DDE = dose-dependent effect
HGC-27 [19] = assay: Induction of apoptosis in human HGC-27 cells assessed as decrease in cIAP-1 level; format: functional, cell-based; conditions: dose 10-30 nM, DDE = dose-dependent effect
HGC-27 [20] = assay: Induction of apoptosis in human HGC-27 cells assessed as decrease in XIAP level; format: functional, cell-based; conditions: dose 10-30 nM, DDE = dose-dependent effect
MGC-803 [21] = assay: Induction of apoptosis in human MGC-803 cells assessed as increase in cleavage caspase 7 level; format: functional, cell-based; conditions: dose 5-15 nM, DDE = dose-dependent effect
MGC-803 [22] = assay: Induction of apoptosis in human MGC-803 cells assessed as increase in cleavage substrate PARP level; format: functional, cell-based; conditions: dose 5-15 nM, DDE = dose-dependent effect
MGC-803 [23] = assay: Antiproliferative activity against human MGC-803 cells assessed as inhibition of cell growth at 5 to 15 nM incubated for 60 hrs; format: functional, cell-based; conditions: dose 5-15 nM
MGC-803 [24] = assay: Inhibition of colony formation in human MGC-803 cells incubated for 7 days by crystal violet staining based analysis; format: functional, cell-based; conditions: dose 2-10 nM, time 7.0 day, DDE = dose-dependent effect
HGC-27 [25] = assay: Inhibition of colony formation in human HGC-27 cells incubated for 7 days by crystal violet staining based analysis; format: functional, cell-based; conditions: dose 3-15 nM, time 7.0 day, DDE = dose-dependent effect
HGC-27 [26] = assay: Induction of cell cycle arrest in human HGC-27 cells assessed as accumulation of cells at G2/M phase at 15 nM incubated for 48 hrs by propidium iodide staining based flow cytometry analysis (reference value: 11%); format: functional
HGC-27 [27] = assay: Downregulation of cyclin B1 expression in human HGC-27 cells at 10 to 30 nM incubated for 48 hrs; format: functional, cell-based; conditions: dose 10-30 nM
HGC-27 [28] = assay: Downregulation of vimentin expression in human HGC-27 cells incubated for 48 hrs; format: functional, cell-based; conditions: dose 10-30 nM, DDE = dose-dependent effect
[29] = Toxicity in BALB/c nude mouse xenografted with human MGC-803 cells assessed as effect on body weight at 15 to 30 mg/kg, ip administered once daily for 21 days; format: organism-based; conditions: in vivo, 504 h, dose 15-30 mg/kg, time 21 day
[30] = Toxicity in BALB/c nude mouse xenografted with human MGC-803 cells assessed as pathological changes in lung at 15 to 30 mg/kg, ip administered once daily for 21 days by Hematoxyin-eosin staining based analysis; format: organism-based; conditions: in vivo, 504 h, dose 15-30 mg/kg, time 21 day
Mus musculus [31] = assay: Downregulation of JNK phosphorylation in tumor tissue of BALB/c nude mouse xenografted with human MGC-803 cells at 15 to 30 mg/kg, ip administered once daily for 21 days by Western blotting analysis; format: functional, organism-based; conditions: dose 15-30 mg/kg, time 21.0 day
Mus musculus [32] = assay: Upregulation of PARP expression in tumor tissue of BALB/c nude mouse xenografted with human MGC-803 cells at 15 to 30 mg/kg, ip administered once daily for 21 days by Western blotting analysis; format: functional, organism-based; conditions: dose 15-30 mg/kg, time 21.0 day

- IC50 (MGC-803 [1]; Homo sapiens, MGC-803, 48 h): 11 nM
- IC50 (MGC-803 [1]; mgc-803): 11.5 nM
- IC50 (PC-3): 34.9 nM
- IC50 (NCI-H520): 33.4 nM
- inhibition [9]: Active
SMILES: CN(c1ccc2c(ccn2C)c1)c1cc(=O)oc2ccccc12
- IC50 (KYSE-450): 21 nM
- IC50 (EC9706): 21.8 nM
- IC50 (CWR22R): 558 nM
- Activity (MGC-803 [2]): Tde
- Activity (HGC-27 [3]): Dde
- inhibition (MGC-803 [4]): Active
- inhibition (HGC-27 [5]): Active
- inhibition (MGC-803 [6]): Active
- inhibition (MGC-803 [7]): Active
- inhibition (HGC-27 [8]): Active
- Activity (MGC-803 [10]): Dde
- Activity (MGC-803 [11]): 40.2%
- Activity [12]: 1.8%
- Activity [13]: 91.6%
- Activity (HGC-27 [14]): Active
- Activity (MGC-803 [15]): Dde
- Activity (HGC-27 [16]): Dde
- Activity (MGC-803 [17]): Dde
- Activity (MGC-803 [18]): Dde
- Activity (HGC-27 [19]): Dde
- Activity (HGC-27 [20]): Dde
- Activity (MGC-803 [21]): Dde
- Activity (MGC-803 [22]): Dde
- inhibition (MGC-803 [23]): Active
- inhibition (MGC-803 [24]): Dde
- inhibition (HGC-27 [25]): Dde
- Activity (HGC-27 [26]): 85%
- Activity (HGC-27 [27]): Active
- Activity (HGC-27 [28]): Dde
- Activity [29]: Non-Toxic
- Activity [30]: Non-Toxic
- Activity (Mus musculus [31]): Active
- Activity (Mus musculus [32]): Active
